Measurements from patent publication US20260072027A1, “Peptides And Method” (Queen Mary University of London, priority 2022, published 2026).
“And” between values parts separate entries of the source, which are not always exact repeats. Identical values can stand only once. “Also recorded” adds a separate entry of the source. Where no end group is shown, it is not given here.

Tests used:
[1] = system: autoantibodies to oxPTM-INS; test: Competitive displacement ELISA, plate coated with oxidised insulin; type: binding, human; details: for inhibition of type 1 diabetes serum binding to oxPTM-INS (in words): sera pre-incubated with peptide competitor
Procedure: A competitive displacement assay was performed to map the exact epitope, namely the exact amino acid sequence binding specificities and to test the binding to native peptides versus oxidised insulin peptides. The binding to the peptide was done by direct ELISA on the native or modified peptides or by competition ELISA. Initially native synthetic peptide was oxidised by exposing to 0.05 mM CuCl2; 90 mM H2O2; 10 mM NaOCl. Native and modified peptides were fractionated by AKTA to evaluated changes in molecular profile. AKTA fractions were then tested by ELISA for reactivity (FIGS. 2 and 3). We next perform competition ELISA with the native peptides and peptides exposed to 0.05 mM CuCl2; 90 mM H2O2; 10 mM NaOCl. Serum samples were pre-incubated with either native insulin peptides or oxidised insulin peptides. Finally, based on the amino acid sequence of the identified peptides we predicted the amino acids that would be oxidised by ^●OH and HOCl and designed synthetic peptides that contain the oxidised amino acids in the synthesis. Synthetic peptides were produced by standard commercially available methods, specifically by Peptide Protein Research Ltd. Briefly, peptide synthesis was performed by automated solid phase peptide synthesis (SPPS), which was followed by purification. Each individual amino acid was added to the growing chain according to the sequence. Where specified, dihydroxyphenylalanine was added to replace Tyr or cysteate were added to replace Cys. Similarly, these peptides were tested by competition ELISA. The table below describe the different competition ELISA performed:
Serum samples from children with type 1 diabetes were pre-incubated with the synthetic peptides before they were added to the native insulin or oxidised that were previously coated on the ELISA plate. If the antibodies in the serum sample bind to the peptide they will no longer bind to the insulin or oxidised insulin on the plate-competition ELISA. 1:200 dilutions of serum samples from T1D serum samples were pre-incubated for 2 hr at room temperature with the various peptides as shown in the table above. After incubation, serum/peptide mix was added to the ELISA plate previously coated overnight with either native insulin or oxidised insulin for an additional 2 hr incubation. Plates were then washed in a plate washer three times with PBS 0.05% tween. After washing, 100 ul of anti-human IgG diluted 1:1000 in 1% milk-PBS 0.05% tween were added for additional 1 hour and 30 min incubation. After washing, ELISA was developed by adding 100 ul of TMB (10 mg/ml in DMSO) in 10 ml of 0.1 M sodium acetate plus 2 ul of H2O2. Reaction was stopped by adding 0.5 M H2SO4 (usually 20 min for insulin ELISA).
To assess the binding specificity of serum samples to identified peptides, a competitive ELISA was performed. The ELISA was carried out following the method described above, except that the serum samples were pre-incubated for 2 h with and without 10 μg/ml peptides as competitors, before adding the serum samples to the insulin coated ELISA plate.

CD4+ T-cells (PBMCs) = test: In vitro peptide stimulation and T-cell proliferation assay, CD4+; type: cell-based, human; details: for CD4+ mean SI (stimulation index): Study cohort 2
In short: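 CellTrace Violet-labelled fresh PBMCs from type 1 diabetic and healthy donors cultured 7 days in 5% autologous plasma with or without 20 μg/ml insulin peptides. Proliferation measured by flow cytometry as dye dilution within the CD4+ or CD8+ subset. Stimulation index = % proliferation stimulated/% unstimulated.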

reduced binding to oxidised whole insulin ([1]; type 1 diabetes sera pre-incubated with peptide, listed as Oxidised peptide 3)	Substance	inhibition of type 1 diabetes serum binding to oxPTM-INS (in words) ([1]; listed as Nt-INSP-4)	CD4+ T-cell response, subjects with SI > 1 (%) (CD4+ T-cells (PBMCs); Controls (N = 11))	CD4+ T-cell response, subjects with SI > 3 (%) (CD4+ T-cells (PBMCs); Controls (N = 11))	CD4+ T-cell response, subjects with SI > 5 (%) (CD4+ T-cells (PBMCs); Controls (N = 11))	CD4+ T-cell response, subjects with SI > 10 (%) (CD4+ T-cells (PBMCs); Controls (N = 11))	CD4+ T-cell response, subjects with SI > 3 (%) (CD4+ T-cells (PBMCs); Controls (N = 11), listed as Nt-INSP-4)	CD4+ T-cell response, subjects with SI > 1 (%) (CD4+ T-cells (PBMCs); Type 1 diabetes (N = 18))	CD4+ T-cell response, subjects with SI > 3 (%) (CD4+ T-cells (PBMCs); Type 1 diabetes (N = 18))	CD4+ T-cell response, subjects with SI > 5 (%) (CD4+ T-cells (PBMCs); Type 1 diabetes (N = 18))	CD4+ T-cell response, subjects with SI > 10 (%) (CD4+ T-cells (PBMCs); Type 1 diabetes (N = 18))	CD4+ T-cell response, subjects with SI > 3 (%) (CD4+ T-cells (PBMCs); Type 1 diabetes (N = 18), listed as Nt-INSP-4)	CD4+ mean SI (stimulation index) (CD4+ T-cells (PBMCs); controls)	CD4+ mean SI (stimulation index) (CD4+ T-cells (PBMCs); type 1 diabetes)	inhibition of type 1 diabetes serum binding to oxPTM-INS (in words) [1]
	LVEALYLVCGERGFFYTPKT [insulin B:11-30 native peptide]	comparable inhibition as oxPTM-INSP-4; also recorded: comparable inhibition compared to oxPTM-INSP-4; also recorded: blocked type 1 diabetes serum binding to oxPTM-INS like oxPTM-INSP-4	(81.8%)	(45.5%)	(27.3%)	(9.1%)	45.5	(100%)	(66.7%)	(5.3%)	(50.0%)	66.7	6.89±3.4	119.8±51.69	
35-80% and 40-80%	oxPTM-INSP-3: oxidised forms of insulin peptide 3 (A:12-21), in house oxidised or in silico derivatives (SLYQLENYCN; not fully specified (N-terminus); also: oxidised forms, in house oxidised or in silico derivatives, modified residues not defined)			9.1%					22.2%						strongly inhibited binding to oxPTM-INS; also recorded: able to inhibit the binding
